Laboratory results as given in PMC5218480 (PLoS ONE, 2017).

Tested on: MV-4-11 cells
Experiment: Gene expression microarray analysis (Affymetrix PrimeView) and GSEA
Assay type: cell-based, human
Set-up: RFU PODN (11730768_x_at) / Fold change /veh PODN (11730768_x_at) / RFU LINC00158 (11744669_a_at) / Fold change /veh LINC00158 (11744669_a_at) / RFU DUSP10 (11751237_a_at) / Fold change /veh DUSP10 (11751237_a_at) / RFU ID3 (11757404_x_at) / Fold change /veh ID3 (11757404_x_at) / RFU PLEKHG5 (11737974_s_at) / Fold change /veh PLEKHG5 (11737974_s_at) / RFU LRRC4B (11730491_at) / Fold change /veh LRRC4B (11730491_at) / RFU GIMAP4 (11747438_a_at) / Fold change /veh GIMAP4 (11747438_a_at) / RFU KRT8 (11758183_x_at) / Fold change /veh KRT8 (11758183_x_at) / RFU CNN1 (11734310_a_at) / Fold change /veh CNN1 (11734310_a_at) / RFU VPS37D (11726825_at) / Fold change /veh VPS37D (11726825_at) / RFU C10orf10 (11716522_x_at) / Fold change /veh C10orf10 (11716522_x_at) / RFU KIR2DL2 /// KIR2DL4 /// KIR2DL5A /// KIR2DL5B /// KIR2DS1 /// KIR2DS2 /// KIR2DS3 /// KIR2DS4 /// KIR3DL3 /// KIR3DL3 /// KIR3DS1 (11738374_at) / Fold change /veh KIR2DL2 /// KIR2DL4 /// KIR2DL5A /// KIR2DL5B /// KIR2DS1 /// KIR2DS2 /// KIR2DS3 /// KIR2DS4 /// KIR3DL3 /// KIR3DL3 /// KIR3DS1 (11738374_at) / RFU C1QL1 (11718748_at) / Fold change /veh C1QL1 (11718748_at) / RFU TMPRSS4 (11747572_a_at) / Fold change /veh TMPRSS4 (11747572_a_at) / RFU HAMP (11756126_x_at) / Fold change /veh HAMP (11756126_x_at) / RFU RNFT2 (11725882_a_at) / Fold change /veh RNFT2 (11725882_a_at) / RFU NR4A2 (11747474_a_at) / Fold change /veh NR4A2 (11747474_a_at) / RFU ABCC12 (11746883_a_at) / Fold change /veh ABCC12 (11746883_a_at) / RFU TMEM136 (11760407_x_at) / Fold change /veh TMEM136 (11760407_x_at) / RFU CLDN22 /// WWC2 (11732394_at) / Fold change /veh CLDN22 /// WWC2 (11732394_at) / RFU HLA-DPB1 (11760878_x_at) / Fold change /veh HLA-DPB1 (11760878_x_at) / RFU SPINT1 (11716480_a_at) / Fold change /veh SPINT1 (11716480_a_at) / RFU GAP43 (11754022_s_at) / Fold change /veh GAP43 (11754022_s_at) / RFU A4GNT (11735810_at) / Fold change /veh A4GNT (11735810_at) / RFU PRB3 (11715151_x_at) / Fold change /veh PRB3 (11715151_x_at) / RFU TUBB4B (11761932_at) / Fold change /veh TUBB4B (11761932_at) / RFU CAPN14 (11732068_a_at) / Fold change /veh CAPN14 (11732068_a_at) / RFU TMCC2 (11721928_a_at) / Fold change /veh TMCC2 (11721928_a_at) / RFU IRGQ (11745062_a_at) / Fold change /veh IRGQ (11745062_a_at) / RFU FAM174B (11720279_a_at) / Fold change /veh FAM174B (11720279_a_at) / RFU TMPRSS4 (11748680_a_at) / Fold change /veh TMPRSS4 (11748680_a_at) / RFU FAM212B (11763350_a_at) / Fold change /veh FAM212B (11763350_a_at) / RFU PLEKHG5 (11743358_a_at) / Fold change /veh PLEKHG5 (11743358_a_at) / RFU ZSCAN30 (11745921_a_at) / Fold change /veh ZSCAN30 (11745921_a_at) / RFU CMKLR1 (11741424_a_at) / Fold change /veh CMKLR1 (11741424_a_at) / RFU LOC101060620 /// MAPK8IP1 (11723275_at) / Fold change /veh LOC101060620 /// MAPK8IP1 (11723275_at) / RFU SPTSSB (11747773_x_at) / Fold change /veh SPTSSB (11747773_x_at) / RFU PRSS12 (11739890_at) / Fold change /veh PRSS12 (11739890_at) / RFU BIN1 (11741810_x_at) / Fold change /veh BIN1 (11741810_x_at) / RFU WNT11 (11732464_a_at) / Fold change /veh WNT11 (11732464_a_at) / RFU C10orf10 (11716521_a_at) / Fold change /veh C10orf10 (11716521_a_at) / RFU C5orf56 (11738089_at) / Fold change /veh C5orf56 (11738089_at) / RFU CYB561 (11721691_x_at) / Fold change /veh CYB561 (11721691_x_at) / RFU ANKRD19P (11752326_a_at) / Fold change /veh ANKRD19P (11752326_a_at) / RFU OR2T12 /// OR2T33 /// OR2T8 (11738714_s_at) / Fold change /veh OR2T12 /// OR2T33 /// OR2T8 (11738714_s_at) / RFU VCAN (11748164_a_at) / Fold change /veh VCAN (11748164_a_at) / RFU JSRP1 (11732532_at) / Fold change /veh JSRP1 (11732532_at) / RFU KRTAP10-11 (11738290_x_at) / Fold change /veh KRTAP10-11 (11738290_x_at) / RFU MYO3A (11730013_a_at) / Fold change /veh MYO3A (11730013_a_at) / RFU EBF3 (11725865_a_at) / Fold change /veh EBF3 (11725865_a_at) / RFU CAMK2N1 (11719241_x_at) / Fold change /veh CAMK2N1 (11719241_x_at) / RFU C5orf56 (11738088_a_at) / Fold change /veh C5orf56 (11738088_a_at) / RFU OLFML3 (11715873_a_at) / Fold change /veh OLFML3 (11715873_a_at) / RFU LOC100653217 /// NTM (11731650_a_at) / Fold change /veh LOC100653217 /// NTM (11731650_a_at) / RFU MAPK11 (11762145_a_at) / Fold change /veh MAPK11 (11762145_a_at) / RFU FIZ1 (11724087_x_at) / Fold change /veh FIZ1 (11724087_x_at) / RFU OASL (11726364_x_at) / Fold change /veh OASL (11726364_x_at) / RFU SOX15 (11748057_x_at) / Fold change /veh SOX15 (11748057_x_at) / RFU CD79A (11719716_a_at) / Fold change /veh CD79A (11719716_a_at) / RFU HIST1H1D (11736915_at) / Fold change /veh HIST1H1D (11736915_at) / RFU CASKIN2 (11723855_a_at) / Fold change /veh CASKIN2 (11723855_a_at) / RFU LOC730098 (11760151_x_at) / Fold change /veh LOC730098 (11760151_x_at) / RFU OR4N2 (11742367_at) / Fold change /veh OR4N2 (11742367_at) / RFU PRRT2 (11749266_a_at) / Fold change /veh PRRT2 (11749266_a_at) / RFU SNX32 (11753110_a_at) / Fold change /veh SNX32 (11753110_a_at) / RFU CDHR5 (11726645_a_at) / Fold change /veh CDHR5 (11726645_a_at) / RFU RCAN1 (11760418_a_at) / Fold change /veh RCAN1 (11760418_a_at) / RFU FAM167A (11723789_a_at) / Fold change /veh FAM167A (11723789_a_at) / RFU FAM26E (11764081_at) / Fold change /veh FAM26E (11764081_at) / RFU ISYNA1 (11749810_s_at) / Fold change /veh ISYNA1 (11749810_s_at) / RFU ACY1 (11761880_at) / Fold change /veh ACY1 (11761880_at) / RFU 11764098_at / Fold change /veh 11764098_at / RFU SAMD14 (11745864_x_at) / Fold change /veh SAMD14 (11745864_x_at) / RFU NPB (11741838_a_at) / Fold change /veh NPB (11741838_a_at) / RFU TMPRSS6 (11731388_a_at) / Fold change /veh TMPRSS6 (11731388_a_at) / RFU KRTAP10-2 (11738614_at) / Fold change /veh KRTAP10-2 (11738614_at) / RFU ARHGAP8 /// PRR5-ARHGAP8 (11727945_x_at) / Fold change /veh ARHGAP8 /// PRR5-ARHGAP8 (11727945_x_at) / RFU KRTAP5-7 /// NADSYN1 (11734609_at) / Fold change /veh KRTAP5-7 /// NADSYN1 (11734609_at) / RFU RASL12 (11751679_a_at) / Fold change /veh RASL12 (11751679_a_at) / RFU CDKN2B (11736163_a_at) / Fold change /veh CDKN2B (11736163_a_at) / RFU PRF1 (11729649_at) / Fold change /veh PRF1 (11729649_at) / RFU, ZNF638 /// ZNF638-IT1 / Fold change vs veh, ZNF638 /// ZNF638-IT1 / RFU, PANK3 / Fold change vs veh, PANK3 / RFU, SH3YL1 / Fold change vs veh, SH3YL1 / RFU, ZEB2 / Fold change vs veh, ZEB2 / RFU, NRIP1 / Fold change vs veh, NRIP1 / RFU, PTTG1IP / Fold change vs veh, PTTG1IP / RFU, CAPN2 / Fold change vs veh, CAPN2 / RFU, MED14 / Fold change vs veh, MED14 / RFU, SNORA58 / Fold change vs veh, SNORA58 / RFU, C1orf63 / Fold change vs veh, C1orf63 / RFU, LRRFIP1 / Fold change vs veh, LRRFIP1 / RFU, NDUFAF7 / Fold change vs veh, NDUFAF7 / RFU, SLC12A2 / Fold change vs veh, SLC12A2 / RFU, IBTK / Fold change vs veh, IBTK / RFU, ESF1 / Fold change vs veh, ESF1 / Fold change vs veh, TMEM50B / RFU, TAOK1 / Fold change vs veh, TAOK1 / RFU, ACBD3 / Fold change vs veh, ACBD3 / RFU, TMA16 / Fold change vs veh, TMA16 / RFU, RWDD3 / Fold change vs veh, RWDD3 / RFU, BCAT1 / Fold change vs veh, BCAT1 / RFU, EDEM3 / Fold change vs veh, EDEM3 / RFU, TMEM33 / Fold change vs veh, TMEM33 / RFU, WDR75 / Fold change vs veh, WDR75 / RFU, AHCTF1 / Fold change vs veh, AHCTF1 / RFU, TFRC / Fold change vs veh, TFRC / RFU, ZDHHC17 / Fold change vs veh, ZDHHC17 / RFU, NOM1 / Fold change vs veh, NOM1 / RFU, ARL8B / Fold change vs veh, ARL8B / RFU, ZBTB11 / Fold change vs veh, ZBTB11 / RFU, TAMM41 / Fold change vs veh, TAMM41 / RFU, KIAA1704 /// LOC100996395 / Fold change vs veh, KIAA1704 /// LOC100996395 / RFU, ING1 / Fold change vs veh, ING1 / RFU, TRMT61B / Fold change vs veh, TRMT61B / RFU, FUBP3 / Fold change vs veh, FUBP3 / RFU, TP53 / Fold change vs veh, TP53 / RFU, TNKS2 / Fold change vs veh, TNKS2 / RFU, ZFP14 / Fold change vs veh, ZFP14 / RFU, ACTR2 / Fold change vs veh, ACTR2 / RFU, PPP3R1 / Fold change vs veh, PPP3R1 / RFU, PIK3R1 / Fold change vs veh, PIK3R1 / RFU, HNRNPA1 / Fold change vs veh, HNRNPA1 / RFU, RNF170 / Fold change vs veh, RNF170 / RFU, ZNF28 / Fold change vs veh, ZNF28 / RFU, RNGTT / Fold change vs veh, RNGTT / RFU, OGT / Fold change vs veh, OGT / RFU, BRD1 / Fold change vs veh, BRD1 / RFU, MARS / Fold change vs veh, MARS / RFU, ZNF655 / Fold change vs veh, ZNF655 / RFU, FAHD1 / Fold change vs veh, FAHD1 / RFU, BDP1 / Fold change vs veh, BDP1 / RFU, LRRCC1 / Fold change vs veh, LRRCC1 / RFU, ARID1A / Fold change vs veh, ARID1A / RFU, ZNF146 / Fold change vs veh, ZNF146 / RFU, ZNF330 / Fold change vs veh, ZNF330 / RFU, GPN3 / Fold change vs veh, GPN3 / RFU, C9orf123 / Fold change vs veh, C9orf123 / RFU, N4BP2L2 / Fold change vs veh, N4BP2L2 / RFU, ARFIP1 / Fold change vs veh, ARFIP1 / RFU, FAM179B / Fold change vs veh, FAM179B / RFU, BCL10 / Fold change vs veh, BCL10 / RFU, UHRF1BP1L / Fold change vs veh, UHRF1BP1L / RFU, BET1 / Fold change vs veh, BET1 / RFU, CNOT2 / Fold change vs veh, CNOT2 / RFU, ZNF268 / Fold change vs veh, ZNF268 / Fold change vs veh, ZNF507 / RFU, DGCR2 / Fold change vs veh, DGCR2 / RFU, WDSUB1 / Fold change vs veh, WDSUB1 / Fold change vs veh, HSP90B1 /// MIR3652 / RFU, ADSS / Fold change vs veh, ADSS / RFU, GK / Fold change vs veh, GK / RFU, ZNF148 / Fold change vs veh, ZNF148 / RFU, TAF9 / Fold change vs veh, TAF9 / RFU, SLC1A5 / Fold change vs veh, SLC1A5 / RFU, SLMO2 / Fold change vs veh, SLMO2 / RFU, ABCC4 / Fold change vs veh, ABCC4 / RFU, LOC101060439 /// RAP1B / Fold change vs veh, LOC101060439 /// RAP1B / RFU, RFX7 / Fold change vs veh, RFX7 / RFU, GTPBP10 / Fold change vs veh, GTPBP10 / RFU, CNEP1R1 / Fold change vs veh, CNEP1R1 / RFU, BIVM-ERCC5 /// ERCC5 / Fold change vs veh, BIVM-ERCC5 /// ERCC5 / RFU, ILF3 / Fold change vs veh, ILF3 / RFU 11762660_at / Fold change /veh 11762660_at / RFU VCAN (11757783_s_at) / Fold change /veh VCAN (11757783_s_at) / RFU DDX43 (11728927_at) / Fold change /veh DDX43 (11728927_at) / RFU KRT8 (11758188_x_at) / Fold change /veh KRT8 (11758188_x_at) / RFU NKD1 (11759106_at) / Fold change /veh NKD1 (11759106_at) / RFU SRD5A1 (11742802_a_at) / Fold change /veh SRD5A1 (11742802_a_at) / RFU TPSAB1 /// TPSB2 (11721975_s_at) / Fold change /veh TPSAB1 /// TPSB2 (11721975_s_at) / RFU GSTM3 (11746129_a_at) / Fold change /veh GSTM3 (11746129_a_at) / RFU IL23R (11737362_x_at) / Fold change /veh IL23R (11737362_x_at) / RFU TMEM51 (11727254_a_at) / Fold change /veh TMEM51 (11727254_a_at) / RFU PIWIL2 (11732686_x_at) / Fold change /veh PIWIL2 (11732686_x_at) / RFU ORM1 (11744905_x_at) / Fold change /veh ORM1 (11744905_x_at) / RFU CCDC152 (11743942_at) / Fold change /veh CCDC152 (11743942_at) / RFU ECM1 (11717891_a_at) / Fold change /veh ECM1 (11717891_a_at) / RFU IL23R (11748794_a_at) / Fold change /veh IL23R (11748794_a_at) / RFU TNFAIP8L3 (11732012_x_at) / Fold change /veh TNFAIP8L3 (11732012_x_at) / RFU MBOAT4 (11741988_at) / Fold change /veh MBOAT4 (11741988_at) / RFU 11764193_at / Fold change /veh 11764193_at / RFU TMEM53 (11763286_at) / Fold change /veh TMEM53 (11763286_at) / RFU MAGEB2 (11727129_at) / Fold change /veh MAGEB2 (11727129_at) / RFU TMEM200A (11744735_a_at) / Fold change /veh TMEM200A (11744735_a_at) / RFU CCDC152 (11751479_a_at) / Fold change /veh CCDC152 (11751479_a_at) / RFU FAM211A (11726209_a_at) / Fold change /veh FAM211A (11726209_a_at) / RFU RGS16 (11746705_a_at) / Fold change /veh RGS16 (11746705_a_at) / RFU VCAN (11755009_s_at) / Fold change /veh VCAN (11755009_s_at) / RFU RHOB (11743442_s_at) / Fold change /veh RHOB (11743442_s_at) / RFU RGS16 (11720943_a_at) / Fold change /veh RGS16 (11720943_a_at) / RFU RGS16 (11720944_at) / Fold change /veh RGS16 (11720944_at) / RFU, VPS4B / Fold change vs veh, VPS4B / RFU, CREB1 / Fold change vs veh, CREB1 / RFU, DNAJC13 / Fold change vs veh, DNAJC13 / RFU, GNAQ / Fold change vs veh, GNAQ / RFU, CDK5R1 / Fold change vs veh, CDK5R1 / RFU, ZRANB3 / Fold change vs veh, ZRANB3 / RFU, CUL4A / Fold change vs veh, CUL4A / RFU, CCNY / Fold change vs veh, CCNY / RFU, UFL1 / Fold change vs veh, UFL1 / RFU, COG3 / Fold change vs veh, COG3 / RFU, DIAPH2 / Fold change vs veh, DIAPH2 / RFU, SKA2 / Fold change vs veh, SKA2 / RFU, AFF3 / Fold change vs veh, AFF3 / RFU, LMF1 / Fold change vs veh, LMF1 / RFU, IPO11 / Fold change vs veh, IPO11 / RFU, DFFB / Fold change vs veh, DFFB / RFU, FOXP1 / Fold change vs veh, FOXP1 / RFU, CARD8 / Fold change vs veh, CARD8 / RFU, STRN3 / Fold change vs veh, STRN3 / RFU, ADK / Fold change vs veh, ADK / RFU, RASSF2 / Fold change vs veh, RASSF2 / RFU, WIPF1 / Fold change vs veh, WIPF1 / RFU, LARP1B / Fold change vs veh, LARP1B / RFU, RASA1 / Fold change vs veh, RASA1 / RFU, RB1 / Fold change vs veh, RB1 / RFU, PPFIA1 / Fold change vs veh, PPFIA1 / RFU, MAT2A / Fold change vs veh, MAT2A / RFU, CCT5 / Fold change vs veh, CCT5 / RFU, WDR92 / Fold change vs veh, WDR92 / RFU, CUX1 / Fold change vs veh, CUX1 / RFU, TTC7A / Fold change vs veh, TTC7A / RFU, TMEM135 / Fold change vs veh, TMEM135 / RFU, DEPTOR / Fold change vs veh, DEPTOR / RFU, CPM / Fold change vs veh, CPM / RFU, DNAJB6 / Fold change vs veh, DNAJB6 / RFU, CACNA2D3 / Fold change vs veh, CACNA2D3 / RFU, DTX4 / Fold change vs veh, DTX4 / RFU, TFCP2 / Fold change vs veh, TFCP2 / RFU, GMCL1 /// GMCL1P1 / Fold change vs veh, GMCL1 /// GMCL1P1 / RFU, AEBP2 / Fold change vs veh, AEBP2 / RFU, SNHG1 /// SNORD22 /// SNORD25 /// SNORD26 /// SNORD27 /// SNORD28 /// SNORD29 /// SNORD31 / Fold change vs veh, SNHG1 /// SNORD22 /// SNORD25 /// SNORD26 /// SNORD27 /// SNORD28 /// SNORD29 /// SNORD31 / Fold change (Aza/veh), C12orf56 (ProbeSet 11735607_a_at) / Fold change (ACY-1035/veh), C12orf56 (ProbeSet 11735607_a_at) / Fold change (Aza/veh), FGFR1OP (ProbeSet 11751329_s_at) / Fold change (ACY-1035/veh), FGFR1OP (ProbeSet 11751329_s_at) / Fold change (Aza/veh), VPS36 (ProbeSet 11739960_a_at) / Fold change (ACY-1035/veh), VPS36 (ProbeSet 11739960_a_at) / RFU SYPL1 (11715823_x_at) / Fold change /veh SYPL1 (11715823_x_at) / RFU IGFBP7 (11715501_s_at) / Fold change /veh IGFBP7 (11715501_s_at) / RFU REEP3 (11722064_at) / Fold change /veh REEP3 (11722064_at) / RFU IGLL1 (11728026_x_at) / Fold change /veh IGLL1 (11728026_x_at): dose or concentration left out as unconfirmed
Settings: ProbeSet 11719632_a_at; LIST B

## Nc1ncn([C@@H]2O[C@H](CO)[C@@H](O)[C@H]2O)c(=O)n1 [azacitidine]
  Fold change vs veh, ABCC4: 0.85
